Experimental data: US7504420B2, “Compounds which inhibit beta-secretase activity and methods of use” (CoMentis, Inc., priority 2005, dated 2009)
pIC50, pKi: −log10 of the molar value.

Columns and labels:
cathepsin D = cathepsin D (Homo sapiens, UniProt P07339); test: Inhibition of cathepsin D catalytic activity (Ki); type: biochemical; settings: pH 4.0, 37° C., read-out: CDK
memapsin 1 = target: T1, memapsin 1 (Homo sapiens, UniProt Q9Y5Z0); test: Inhibition of memapsin 1 catalytic activity (Ki); type: biochemical; settings: memapsin 1, pH 4.0, 37° C.; read-out: M1K
T1 sequence (Q9Y5Z0 63-518): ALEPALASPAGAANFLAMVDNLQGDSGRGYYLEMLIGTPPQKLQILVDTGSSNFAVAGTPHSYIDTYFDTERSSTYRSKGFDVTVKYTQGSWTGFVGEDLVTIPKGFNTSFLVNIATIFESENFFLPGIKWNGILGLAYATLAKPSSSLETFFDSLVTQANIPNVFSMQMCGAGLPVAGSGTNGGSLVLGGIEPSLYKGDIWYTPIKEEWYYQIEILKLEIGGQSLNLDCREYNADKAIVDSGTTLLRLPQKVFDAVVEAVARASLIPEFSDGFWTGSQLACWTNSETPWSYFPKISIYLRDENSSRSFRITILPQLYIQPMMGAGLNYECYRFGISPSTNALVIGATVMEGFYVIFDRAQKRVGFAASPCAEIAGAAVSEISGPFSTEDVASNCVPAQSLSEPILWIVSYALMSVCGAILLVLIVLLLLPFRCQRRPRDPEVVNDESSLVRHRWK
Experimental: A substrate peptide NH3-ELDLAVEFWHDR-CO2 (SEQ ID NO.:1) (used for inhibition assay of memapsin 2, memapsin 1, and cathepsin D) was dissolved at 2 mg/ml in DMSO and diluted 1:100 in 0.1 M sodium acetate, pH 4.0 just prior to assay. Inhibitor dissolved in DMSO was diluted into 0.1 M sodium acetate, pH 4.0 (1:100 dilution). A […] aliquot of the inhibitor solution in pH 4 buffer was combined with […] of 0.1 M sodium acetate containing 100-200 nM of memapsin 1, memapsin 2, or cathepsin D. Following a pre-incubation at 37° C., the proteolytic assay was initated by addition of […] of the substrate diluted into pH 4 buffer, and incubation continued at 37° C. Aliquots were removed at time intervals, and combined with an equal volume of MALDI-TOF matrix (α-hydroxycinnamic acid in acetone, 20 mg/ml) and immediately spotted in duplicate onto a stainless-steel MALDI sample plate. MALDI-TOF mass spectrometry was performed on a PE Biosystems Voyager DE instrument at the Molecular Biology Resource Center on campus. The instrument was operated at 25,000 accelerating volts in positive mode with a 150 ns delay. Ions with a mass-to-charge ratio (m/z) were detected in the range of 650-2000 atomic mass units. Data were analyzed by the Voyager Data Explorer module to obtain ion intensity data for mass species of substrates and corresponding products in a given mixture. Relative product formation was calculated as the ratio of signal intensity of the product to the sum of signal intensities of both product and the corresponding substrate. Relative product formed per unit time was obtained from non-linear regression analysis of the data representing the initial 15% formation of product using the model: 1−e^−kT, where k was the relative hydrolytic rate constant and T was time in seconds. Alternatively, relative hydrolytic rates were determined using a fluorogenic cleavage assay (Ermolieff, J. et al., Biochemistry, 39: 12450-12456 (2000)). Initial rates from either method were expressed relative to uninhibited controls and the inhibition constant Ki was determined by a non-linear fit to a tight-binding model of competitive inhibition (Bieth, J., Bayer-Symposium V: Proteinase Inhibitors, pp 463-469, Spinger-Varlag, Berlin (1994)). Results are shown in Table 1 above (M2K, CDK, and M1K columns represent, respectively, the K1 values obtained for memapsin 2, cathepsin D and memapsin 1).

[1] = system: Aβ production in Chinese hamster ovary cells that over-express human APP695 with the London and Swedish mutations; test: Cellular Aβ IC50 determination (Aβ40 sandwich ELISA); settings: Cricetulus griseus, CHO, 24 h, read-out: Cell, Aβ40, CHO cells over-expressing human APP695 (London and Swedish mutations), 24 h
memapsin 2 = memapsin 2 (Homo sapiens, UniProt P56817); test: Inhibition of memapsin 2 catalytic activity (Ki); type: biochemical; settings: memapsin 2, pH 4, 37° C.; read-out: M2K
memapsin 2, sequence (P56817 46-501): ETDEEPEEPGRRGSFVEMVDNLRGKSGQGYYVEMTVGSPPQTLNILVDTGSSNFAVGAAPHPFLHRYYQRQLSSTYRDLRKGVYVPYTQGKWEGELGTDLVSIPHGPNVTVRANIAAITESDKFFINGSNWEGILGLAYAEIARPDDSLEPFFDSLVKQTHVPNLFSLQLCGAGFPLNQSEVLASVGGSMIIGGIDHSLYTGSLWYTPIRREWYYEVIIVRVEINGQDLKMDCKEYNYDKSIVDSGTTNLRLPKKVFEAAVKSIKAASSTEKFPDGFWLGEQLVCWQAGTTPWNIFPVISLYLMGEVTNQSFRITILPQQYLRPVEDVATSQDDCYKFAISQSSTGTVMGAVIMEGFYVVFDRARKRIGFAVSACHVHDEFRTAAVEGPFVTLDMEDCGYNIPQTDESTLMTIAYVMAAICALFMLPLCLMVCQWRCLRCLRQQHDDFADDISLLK
Outline: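 Run at 37 °C and pH 4: compound and enzyme pre-incubated 20 min before FS-2 fluorogenic substrate started hydrolysis,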

cathepsin D, sequence (P07339 65-412, species assumed): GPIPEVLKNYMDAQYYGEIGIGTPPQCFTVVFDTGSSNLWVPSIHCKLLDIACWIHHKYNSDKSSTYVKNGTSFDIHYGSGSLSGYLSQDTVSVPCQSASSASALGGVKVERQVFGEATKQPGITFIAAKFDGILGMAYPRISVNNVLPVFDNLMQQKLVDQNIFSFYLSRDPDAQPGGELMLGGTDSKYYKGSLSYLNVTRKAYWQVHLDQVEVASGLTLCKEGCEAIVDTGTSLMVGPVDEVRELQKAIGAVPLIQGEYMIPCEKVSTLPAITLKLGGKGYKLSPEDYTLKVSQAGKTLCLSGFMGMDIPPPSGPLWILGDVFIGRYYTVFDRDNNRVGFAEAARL

Structure (SMILES)	pKi (cathepsin D)	pKi (memapsin 1)	pIC50 [1]	pKi (memapsin 2)
CC(NC(=O)c1cc(C(=O)NC(Cc2ccccc2)C(O)CNCc2ccccn2)cc(N(C)S(C)(=O)=O)c1)c1ccccc1 (stereo not drawn) [N1-(3-hydroxy-1-phenyl-4-(pyridin-2-ylmethylamino)butan-2-yl)-5-(N-methylmethylsulfonamido)-N3-(1-phenylethyl)isophthalamide]	< 6.30	< 6.30	> 6.00	> 6.52
COc1cccc(CNCC(O)C(Cc2ccccc2)NC(=O)c2cccc(C(=O)NC(C)c3cccnc3)c2)c1 (stereo not drawn) [N1-(3-hydroxy-4-(3-methoxybenzylamino)-1-phenylbutan-2-yl)-N3-(1-(pyridin-3-yl)ethyl)isophthalamide]	< 6.30	< 6.30	< 5.30	< 6.30
Cc1csc(CN(C)C(=O)c2cccc(C(=O)NC(Cc3ccccc3)C(O)CNC(C)c3ccccc3)c2)n1 (stereo not drawn) [N1-(3-hydroxy-1-phenyl-4-(1-phenylethylamino)butan-2-yl)-N3-methyl-N3-((4-methylthiazol-2-yl)methyl)isophthalamide]	< 6.30	> 6.52	5.30 to 6.00	< 6.30
CC(NC(=O)c1cc(C(=O)NC(Cc2ccccc2)C(O)CNCc2cccnc2)cc(N(C)S(C)(=O)=O)c1)c1ccccc1 (stereo not drawn) [N1-(3-hydroxy-1-phenyl-4-(pyridin-3-ylmethylamino)butan-2-yl)-5-(N-methylmethylsulfonamido)-N3-(1-phenylethyl)isophthalamide]	< 6.30	6.30 to 6.52	> 6.00	> 6.52
COc1cccc(CNCC(O)C(Cc2ccccc2)NC(=O)c2cc(C(=O)NC(C)c3ccccc3)cc([N+](=O)[O-])c2)c1 (stereo not drawn) [N1-(3-hydroxy-4-(3-methoxybenzylamino)-1-phenylbutan-2-yl)-5-nitro-N3-(1-phenylethyl)isophthalamide]	> 6.52	> 6.52	> 6.00	6.30 to 6.52
COc1ccccc1CNCC(O)C(Cc1ccccc1)NC(=O)c1cc(C(=O)NC(C)c2ccccc2)cc(N(C)S(C)(=O)=O)c1 (stereo not drawn) [N1-(3-hydroxy-4-(2-methoxybenzylamino)-1-phenylbutan-2-yl)-5-(N-methylmethylsulfonamido)-N3-(1-phenylethyl)isophthalamide]	> 6.52	6.30 to 6.52	> 6.00	> 6.52
Cc1csc(CNCC(O)C(Cc2ccccc2)NC(=O)c2cc(C(=O)NC(C)c3ccccc3)cc(N(C)S(C)(=O)=O)c2)n1 (stereo not drawn) [N1-(3-hydroxy-4-((4-methylthiazol-2-yl)methylamino)-1-phenylbutan-2-yl)-5-(N-methylmethylsulfonamido)-N3-(1-phenylethyl)isophthalamide]	6.30 to 6.52	< 6.30	> 6.00	> 6.52
Cc1cccc(CNCC(O)C(Cc2ccccc2)NC(=O)c2cccc(C(=O)N(C)Cc3nc(C)cs3)c2)c1 (stereo not drawn) [N1-(3-hydroxy-4-(3-methylbenzylamino)-1-phenylbutan-2-yl)-N3-methyl-N3-((4-methylthiazol-2-yl)methyl)isophthalamide]	> 6.52	< 6.30	> 6.00	< 6.30
Cc1cccc(CNCC(O)C(Cc2ccccc2)NC(=O)c2cc(C(=O)NC(C)c3ccccc3)cc(N(C)S(C)(=O)=O)c2)c1 (stereo not drawn) [N1-(3-hydroxy-4-(3-methylbenzylamino)-1-phenylbutan-2-yl)-5-(N-methylmethylsulfonamido)-N3-(1-phenylethyl)isophthalamide]	> 6.52	6.30 to 6.52	> 6.00	> 6.52
Cc1csc(CN(C)C(=O)c2cccc(C(=O)NC(Cc3ccccc3)C(O)CNCc3cccc(F)c3)c2)n1 (stereo not drawn) [N1-(4-(3-fluorobenzylamino)-3-hydroxy-1-phenylbutan-2-yl)-N3-methyl-N3-((4-methylthiazol-2-yl)methyl)isophthalamide]	> 6.52	< 6.30	> 6.00	< 6.30

Continued, values first:

pKi (cathepsin D)	pKi (memapsin 1)	pIC50 [1]	pKi (memapsin 2)	Structure (SMILES)
> 6.52	> 6.52	> 6.00	> 6.52	Cc1csc(CN(C(=O)c2cccc(C(=O)NC(Cc3ccccc3)C(O)CNCc3cncc(C(C)C)c3)c2)C2CC2)n1 (stereo not drawn) [N1-cyclopropyl-N3-(3-hydroxy-4-((5-isopropylpyridin-3-yl)methylamino)-1-phenylbutan-2-yl)-N1-((4-methylthiazol-2-yl)methyl)isophthalamide]
> 6.52	< 6.30	> 6.00	> 6.52	Cc1csc(CN(C)C(=O)c2cccc(C(=O)NC(Cc3ccccc3)C(O)CNCc3cccc(C(F)(F)F)c3)c2)n1 (stereo not drawn) [N1-(3-hydroxy-1-phenyl-4-(3-(trifluoromethyl)benzylamino)butan-2-yl)-N3-methyl-N3-((4-methylthiazol-2-yl)methyl)isophthalamide]
> 6.52	< 6.30	> 6.00	> 6.52	COc1cccc(CNCC(O)C(Cc2ccccc2)NC(=O)c2cccc(C(=O)N(C)Cc3nc(C)cs3)c2)c1 (stereo not drawn) [N1-(3-hydroxy-4-(3-methoxybenzylamino)-1-phenylbutan-2-yl)-N3-methyl-N3-((4-methylthiazol-2-yl)methyl)isophthalamide]
> 6.52	< 6.30	5.30 to 6.00	> 6.52	COc1cccc(CNCC(O)C(Cc2ccccc2)NC(=O)c2cc(C(=O)NCc3cccc(OC)c3)cc(N(C)S(C)(=O)=O)c2)c1 (stereo not drawn) [N1-(3-hydroxy-4-(3-methoxybenzylamino)-1-phenylbutan-2-yl)-N3-(3-methoxybenzyl)-5-(N-methylmethylsulfonamido)isophthalamide]
> 6.52	6.30 to 6.52	> 6.00	> 6.52	CC(NCC(O)C(Cc1ccccc1)NC(=O)c1cc(C(=O)NC(C)c2ccccc2)cc(N(C)S(C)(=O)=O)c1)c1ccccc1 (stereo not drawn) [N1-(3-hydroxy-1-phenyl-4-(1-phenylethylamino)butan-2-yl)-5-(N-methylmethylsulfonamido)-N3-(1-phenylethyl)isophthalamide]
> 6.52	< 6.30	> 6.00	> 6.52	CC(NC(=O)c1cc(C(=O)NC(Cc2ccccc2)C(O)CNCc2cc(F)cc(F)c2)cc(N(C)S(C)(=O)=O)c1)c1ccccc1 (stereo not drawn) [N1-(4-(3,5-difluorobenzylamino)-3-hydroxy-1-phenylbutan-2-yl)-5-(N-methylmethylsulfonamido)-N3-(1-phenylethyl)isophthalamide]
> 6.52	6.30 to 6.52	> 6.00	> 6.52	Cc1cncc(CNCC(O)C(Cc2ccccc2)NC(=O)c2cc(C(=O)NC(C)c3ccccc3)cc(N(C)S(C)(=O)=O)c2)c1 (stereo not drawn) [N1-(3-hydroxy-4-((5-methylpyridin-3-yl)methylamino)-1-phenylbutan-2-yl)-5-(N-methylmethylsulfonamido)-N3-(1-phenylethyl)isophthalamide]
> 6.52	> 6.52	> 6.00	> 6.52	CC(NC(=O)c1cc(C(=O)NC(Cc2ccccc2)C(O)CNCc2ccccc2)cc(N(C)S(C)(=O)=O)c1)c1ccccc1 (stereo not drawn) [N1-(4-(benzylamino)-3-hydroxy-1-phenylbutan-2-yl)-5-(N-methylmethylsulfonamido)-N3-(1-phenylethyl)isophthalamide]
